Patent US9243254B2, “Method for transforming a bacterium belonging to the streptococcus genus by natural competence” (priority 2009, dated 2016)

What was measured:
[1] = test system: LMD9-Δblp::PcomX-luxABΔshp316::P32-cat; assay: Natural transformation in CDM of the shp316-deleted strain upon addition of synthetic peptides (test A); type: cell-based, Streptococcus thermophilus; settings: 1 μM synthetic peptide; for Transformation rate, With peptide addition: 1 μg/mL pGIUD0855ery, CDM, erythromycin selection; for Restoration of the competence defect: result in words
Description: A mutant strain of LMD-9 in which the shp316 gene (which is the gene encoding the peptide Shp316) has been inactivated, such as strain LMD9-Δblp::PcomX-luxABΔshp316::P32-cat (see Example 2 for details on this strain) is pre-cultivated in M17-lactose medium. The cells of the preculture are harvested (5000 g, 9 minutes, 20° C.) and washed twice in Chemically Defined Medium (CDM, see Annex I) and then resuspended in CDM. The washed cells are diluted in fresh CDM medium to obtain an optical density of 0.05 at 600 nm, and then incubated at 37° C. After 1.5 h of incubation, the culture is separated in 2 aliquots of 10 mL and 0 or 1000 nM of peptide are added in the culture samples. Finally, each 10 mL-aliquot is divided in 2 samples of 5 mL each. One of the 2 samples receives 1 μg/mL pGIUD0855ery, a plasmid bearing an erythromycin resistance gene. The competence phenotype of the samples is studied by performing natural transformation experiments as described in example 1. The cultures are grown for 6 hours and serial dilutions are plated on the surface of M17-lactose agar medium containing or not 2.5 μg/mL of erythromycin. The transformation rate in the presence or absence of peptide is calculated for each sample; it is expressed as the ratio of erythromycin-resistant cells among the total bacterial population.
The experimental strategy is described below. Strain LMD9-Δblp::PcomX-luxABΔshp316::P32-cat is precultivated in M17-lactose medium. The cells of the preculture were harvested (5000 g, 9 minutes, 20° C.) and washed twice in CDM and then resuspended in CDM. The washed cells are diluted in fresh CDM to obtain an optical density of 0.05 at 600 nm, and then incubated at 37° C. After 1.5 h of incubation, in one set of experiment, 1 μM of one of the tested synthetic peptides and 1 μg/mL of pGIUD0855ery were added to the culture; whereas 1 μg/mL of pGIUD0855ery but no synthetic peptide was added to the second set of experiment. The cultures were grown during 6 hours and serial dilutions were plated on the surface of M17-lactose agar medium containing 2.5 μg/mL of erythromycin to measure transformation efficiency.
Ability of peptides derived from Shp316 to restore the competence defect of LMD9-Δblp::PcomX-luxABΔshp316::P32-cat was further investigated focusing on the synthetic peptide PYFAGCL. Experimental work was performed as described above except that various concentrations of PYFAGCL were used: 0 nM, 1 nM, 10 nM, 100 nM, 500 nM, 1 μM, 2.5 μM and 5 μM. […]

[2] = test system: S. thermophilus CNRZ1066; assay: Natural transformation in CDM upon addition of synthetic peptide; type: cell-based, Streptococcus thermophilus
Description: (§1) Similarly to the protocol used in example 4, strains LMD-9, LMG18311, CNRZ1066 and JIM8777 were pre-cultivated in M17-lactose medium. The cells of the precultures were harvested (5000 g, 9 minutes, 20° C.) and washed twice in CDM and then resuspended in CDM. The washed cells were diluted in fresh CDM medium to obtain an optical density of 0.05, and then incubated at 37° C. After 1.5 h of incubation, in one set of experiment, 1 μM of one of the tested synthetic peptides and 1 μg/mL of pGIUD0855ery DNA (in case of S. thermophilus strains), or 1 μg/ml of pG+host09 DNA (in case of S. salivarius strains) were added to the culture, whereas 1 μg/mL of DNA but no synthetic peptide was added to the second set of experiment. The cultures were grown during 6 hours and serial dilutions were plated on the surface of M17-lactose agar medium containing 2.5 μg/mL of erythromycin to measure transformation efficiency. Transformed S. thermophilus and S. salivarius cells are selected at 37° C. and 29° C., respectively.
Similarly to the protocol used in example 4, various S. thermophilus strains, including LMD-9, CNRZ1066 and LMG18311 used as controls, were pre-cultivated in M17-lactose medium. The cells of the precultures were harvested (5000 g, 9 minutes, 20° C.) and washed twice in CDM and then resuspended in CDM. The washed cells were diluted in fresh CDM medium to obtain an optical density of 0.05, and then incubated at 37° C. After 1.5 h of incubation, in one set of experiment, 1 μM of one of the tested synthetic peptides (LPYFAGCL) (SEQ ID NO: 85) and 1 μg/mL of pGIUD0855cat DNA were added to the culture, whereas 1 μg/mL of DNA but no synthetic peptide was added to the second set of experiment. Plasmid pGIUD0855cat is a pUC18-derivative containing a chloramphenicol resistance cassette flanked by 1-kb fragments corresponding to the upstream and downstream regions of stu0855. Upon transformation, it promotes the genetic replacement of stu0855 by P32-cat through homologous recombination (FIG. 7). The cultures were grown during 6 hours and serial dilutions were plated on the surface of M17-lactose agar medium containing 5 μg/mL of chloramphenicol to measure transformation efficiency. Transformed S. thermophilus cells were selected at 37° C.; when transformants were obtained, the transformation efficiency was calculated and is given in Table 9.
Day 2: • Centrifuge Day 1—culture (centrifugation parameters: 5000 g, 9 minutes, 15° C.) and perform two washing steps with one volume (10 mL) of CDM (centrifugation parameters: 5000 g, 9 minutes, 15° C.). • Dilute the culture in 10 mL CDM to obtain an OD600nm of 0.05. • A small volume of S. thermophilus cultures (300 μL) is then transferred in white microplate with a transparent bottom (655095; Greiner, Alphen aid Rijn, The Netherlands) and is grown at 37° C. Luminescence at 595 nm and optical density at 600 nm are recorded with the automatic Synergy HT multi-mode microplate reader. The luciferase activity catalysed by LuxAB requires the presence of nonanal as substrate. In this experimental set-up, nonanal (Acros Organics ref. 204-688-5) is supplied to the cultures by placing 50 μL of a solution containing 1% nonanal diluted in mineral oil in the spaces between the wells of a covered microplate (11). […] The luminescence and absorbance are scanned every 10 minutes during 6 hours. • To perform a competence experiment, 1 μg of donor DNA is added in the 300 μL samples in the beginning of incubation. […]

[3] = test system: S. salivarius JIM8777; assay: as above; type: cell-based, Streptococcus salivarius
Description: as §1
Day 2: • Centrifuge Day 1—culture (centrifugation parameters: 5000 g, 9 minutes, 15° C.) and perform two washing steps with one volume (10 mL) of CDM (centrifugation parameters: 5000 g, 9 minutes, 15° C.). • Dilute the culture in 10 mL CDM to obtain an OD600nm of 0.05. • A small volume of S. thermophilus cultures (300 μL) is then transferred in white microplate with a transparent bottom (655095; Greiner, Alphen aid Rijn, The Netherlands) and is grown at 37° C. Luminescence at 595 nm and optical density at 600 nm are recorded with the automatic Synergy HT multi-mode microplate reader. The luciferase activity catalysed by LuxAB requires the presence of nonanal as substrate. In this experimental set-up, nonanal (Acros Organics ref. 204-688-5) is supplied to the cultures by placing 50 μL of a solution containing 1% nonanal diluted in mineral oil in the spaces between the wells of a covered microplate (11). The nonanal present in the solution will become volatile and there will be an equilibrium between the concentration of nonanal present in the air and in the culture samples. The luminescence and absorbance are scanned every 10 minutes during 6 hours. • To perform a competence experiment, 1 μg of donor DNA is added in the 300 μL samples in the beginning of incubation. […] In case of the sample that received DNA, make different 10-fold dilutions of the sample and plate 100 μL on the same solid selective medium. Check the viability of the cells in the samples by plating 10 μL of serial 10-fold dilutions of the cultures on M17, lactose 1% medium. Transformants are picked following 24 h of incubation at 37° C. in anaerobic conditions (gaspak BBL). […]

[4] = 1 μM PYFTGCL, 1 μg/mL pG+host09

Row | Substance | Transformation rate, With peptide addition [1] | further results
1 | AILPYFAGC (fragment) [synthetic peptide, fragment of Shp316 without the carboxy-terminal leucine] | <10^−8 | 
2 | AILPYFAGCL (fragment) [synthetic peptide corresponding to a C-terminal fragment of Shp316] | 2.21 × 10^−3 | Restoration of the competence defect [1]: allowed to restore the competence defect
3 | ILPYFAG (fragment) [synthetic peptide corresponding to a fragment of Shp316 without the C-terminal CL] | <10^−8 | 
4 | ILPYFAGC (fragment) [synthetic peptide, fragment of Shp316 without the carboxy-terminal leucine] | <10^−8 | 
5 | ILPYFAGCL (fragment) [synthetic peptide corresponding to a C-terminal fragment of Shp316] | 3.42 × 10^−3 | Restoration of the competence defect [1]: allowed to restore the competence defect
6 | LPYFAGC (fragment) [synthetic peptide, fragment of Shp316 without the carboxy-terminal leucine] | <10^−8 | 
7 | PYFAG (fragment) [synthetic peptide corresponding to a fragment of Shp316 without the C-terminal CL] | <10^−8 | 
8 | PYFAGC (fragment) [synthetic peptide, fragment of Shp316 without the carboxy-terminal leucine] | <10^−8 | 
9 | PYFTGCL (fragment) [alanine in position 4 replaced by threonine] |  | Transformation rate, With peptide addition [2, 4]: 3.48 × 10^−7; Complementation of the transformation defect in CDM ([2]; 1 μM peptide, result in words): able to complement the transformation defect; Transformation rate, With peptide addition [3, 4]: 5.77 × 10^−7; Complementation of the transformation defect in CDM ([3]; 1 μM peptide, result in words): able to complement the transformation defect
